Converted amounts (≈) assume the structure as drawn. Like-named read-outs stand apart in the source and are kept apart here.
Experiments:
C. mandshurica = assay: Mycelial growth rate / poison plate antifungal test; assay type: cell-based, Cytospora mandshurica; conditions: Cytospora; for inhibition at 50 µg/mL: 120 h, read-out: Inhibition (%) C. mandshurica; for EC50: read-out: EC50 (µg/mL) C. mandshurica
F. oxysporum = assay: as above; assay type: cell-based; conditions: Fusarium oxysporum; for inhibition at 50 µg/mL: 120 h, read-out: Inhibition (%) F. oxysporum; for EC50: read-out: EC50 (µg/mL) F. oxysporum
B. cinerea = assay: microbe, parasite or virus in culture; assay type: cell-based; conditions: Botrytis cinerea, read-out: EC50 (µg/mL) B. cinerea
C. gloeosporioides = assay: microbe, parasite or virus in culture; assay type: cell-based; conditions: Colletotrichum gloeosporioides, read-out: EC50 (µg/mL) C. gloeosporioides
R. solani = assay: microbe, parasite or virus in culture; assay type: cell-based; conditions: Rhizoctonia solani, read-out: EC50 (µg/mL) R. solani
T. cucumeris = assay: microbe, parasite or virus in culture; assay type: cell-based; conditions: Thanatephorus cucumeris, read-out: EC50 (µg/mL) T. cucumeris
P. infestans = assay: microbe, parasite or virus in culture; assay type: cell-based; conditions: Phytophthora infestans, read-out: EC50 (µg/mL) P. infestans
S. sclerotiorum = assay: microbe, parasite or virus in culture; assay type: cell-based; conditions: Sclerotinia sclerotiorum, read-out: EC50 (µg/mL) S. sclerotiorum
[1] = at 50 µg/mL, PDA, 27 ± 1 °C, 5 days

| SMILES | melting point [°C] | inhibition at 50 µg/mL (C. mandshurica; [1]) [%] | inhibition at 50 µg/mL (F. oxysporum; [1]) [%] | EC50 (B. cinerea) [µg/mL] | EC50 (C. gloeosporioides) [µg/mL] | EC50 (R. solani) [µg/mL] | EC50 (T. cucumeris) [µg/mL] | EC50 (P. infestans) [µg/mL] | EC50 (S. sclerotiorum) [µg/mL] | EC50 (C. mandshurica) [µg/mL] | EC50 (F. oxysporum) [µg/mL] | inhibition at 50 µg/mL (C. mandshurica) [%] | inhibition at 50 µg/mL (F. oxysporum) [%] |
| --- | --- | --- | --- | --- | --- | --- | --- | --- | --- | --- | --- | --- | --- |
| CS(=O)(=O)c1nnc(-c2ccccc2C(F)(F)F)o1 [Compound 5a, 2-(Methylsulfonyl)-5-(2-(trifluoromethyl)phenyl)-1,3,4-oxadiazole] | 102 to 104 | 68.3 ± 9.3 | 71.1 ± 7.7 |  |  |  |  |  |  |  |  |  |  |
| CS(=O)(=O)c1nnc(-c2ccc(F)c(F)c2F)o1 [Compound 5b, 2-(Methylsulfonyl)-5-(2,3,4-trifluorophenyl)-1,3,4-oxadiazole] | 114 to 115 | 89.7 ± 3.1 | 97.5 ± 3.3 |  |  |  |  |  |  |  |  |  |  |
| CS(=O)(=O)c1nnc(-c2ccncc2)o1 [Compound 5c, 2-(Methylsulfonyl)-5-(pyridin-4-yl)-1,3,4-oxadiazole] | 134 to 136 | 78.2 ± 4.7 | 72.6 ± 6.4 |  |  |  |  |  |  |  |  |  |  |
| CS(=O)(=O)c1nnc(-c2ccccc2F)o1 [Compound 5d, 2-(Methylsulfonyl)-5-(2-fluorophenyl)-1,3,4-oxadiazole] | 97 to 99 | 64 ± 1.3 | 70.1 ± 4.9 | 5.21 ± 2.05 (≈ 21.5 µM) | 20.2 ± 6.65 (≈ 83.5 µM) | 6.43 ± 1.34 (≈ 26.5 µM) | 10 ± 5.64 (≈ 41.3 µM) | 14.7 ± 3.23 (≈ 60.8 µM) | 8.49 ± 3.51 (≈ 35 µM) | 79.9 ± 14.8 (≈ 330 µM) | 29.1 ± 7.82 (≈ 120 µM) |  |  |
| CS(=O)(=O)c1nnc(-c2c(F)cccc2F)o1 [Compound 5e, 2-(Methylsulfonyl)-5-(2,6-difluorophenyl)-1,3,4-oxadiazole] | 131 to 132 | > 90 | 98.8 ± 8 | 8.25 ± 0.85 (≈ 31.7 µM) | 26.1 ± 7.32 (≈ 100 µM) | 21.2 ± 4.12 (≈ 81.6 µM) | 23.4 ± 4.76 (≈ 89.7 µM) | 59.5 ± 16.8 (≈ 229 µM) | 15 ± 6.83 (≈ 57.5 µM) | 38.3 ± 3.21 (≈ 147 µM) | 65.8 ± 7.04 (≈ 253 µM) |  |  |
| CS(=O)(=O)c1nnc(-c2c(Cl)cccc2Cl)o1 [Compound 5f, 2-(Methylsulfonyl)-5-(2,6-dichlorophenyl)-1,3,4-oxadiazole] | 126 to 128 | > 90 | 94 ± 4.1 | 8.03 ± 0.86 (≈ 27.4 µM) | 33.1 ± 8.29 (≈ 113 µM) | 16.2 ± 9.76 (≈ 55.1 µM) | 25.2 ± 2.34 (≈ 86.1 µM) | 42.9 ± 7.38 (≈ 146 µM) | 17.2 ± 4.72 (≈ 58.7 µM) | 98.2 ± 8.35 (≈ 335 µM) | 85.4 ± 17.9 (≈ 291 µM) |  |  |
| COc1ccccc1-c1nnc(S(C)(=O)=O)o1 [Compound 5g, 2-(Methylsulfonyl)-5-(2-methoxyphenyl)-1,3,4-oxadiazole] | 127 to 129 | > 90 | 89.6 ± 4.5 |  |  |  |  |  |  |  |  |  |  |
| Cc1ccccc1-c1nnc(S(C)(=O)=O)o1 [Compound 5h, 2-(Methylsulfonyl)-5-(2-methylphenyl)-1,3,4-oxadiazole] | 117 to 119 | > 90 | 74.6 ± 8.5 |  |  |  |  |  |  |  |  |  |  |
| CS(=O)(=O)c1nnc(-c2ccccc2Br)o1 [Compound 5i, 2-(Methylsulfonyl)-5-(2-bromophenyl)-1,3,4-oxadiazole] | 134 to 135 | 79.6 ± 7.1 | 77 ± 6.6 | 21 ± 2.01 (≈ 69.3 µM) | 21.9 ± 2.93 (≈ 72.4 µM) | 20 ± 1.28 (≈ 66 µM) | 24.8 ± 4.29 (≈ 81.7 µM) | 49.6 ± 9.39 (≈ 164 µM) | 14.8 ± 1.02 (≈ 48.8 µM) | 44.5 ± 3.56 (≈ 147 µM) | 29.9 ± 1.31 (≈ 98.6 µM) |  |  |
| CS(=O)(=O)c1nnc(-c2c(F)cccc2Cl)o1 [Compound 5j, 2-(Methylsulfonyl)-5-(2-chloro-6-fluorophenyl)-1,3,4-oxadiazole] | 121 to 123 | 64 ± 2.6 | 67.1 ± 4.8 |  |  |  |  |  |  |  |  |  |  |
| Cc1cc(O)no1 [Hymexazol, reference compound] |  |  |  | 25.2 ± 6.12 (≈ 255 µM) | 37.6 ± 3.16 (≈ 379 µM) | 38.6 ± 0.45 (≈ 390 µM) | 32.2 ± 5.82 (≈ 325 µM) | 26.5 ± 1.42 (≈ 267 µM) | 7.76 ± 2.98 (≈ 78.3 µM) | 39.3 ± 2.79 (≈ 396 µM) | 27.9 ± 1.02 (≈ 282 µM) | 57.3 ± 0.3 | 58.4 ± 0.8 |

Reference: publication PMC6264464, “Synthesis and Antifungal Activity of Novel Sulfone Derivatives Containing 1,3,4-Oxadiazole Moieties” (Molecules, 2011)
